The subject of the assay is vGLUT1- bzw. vGLUT2-Transporter. As to the kind of experiment: Glutamate uptake into rat crude synaptic vesicles ([3H]-glutamate uptake). The assay is classed as biochemical, Ratte. As to conditions: for VGLUT (Ratte), Hemmung [%]: test concentration not given. The text has this:
I. Funktionelle Untersuchung an den vGLUT1- bzw. vGLUT2-Transportern
Die agonistische bzw. antagonistische Wirkung der zu untersuchenden Verbindungen am vGLUT1- bzw. vGLUT2-Transporter der Spezies Ratte kann mit folgendem Assay bestimmt werden.
Glutamat-Uptake in Rattenvesikel ('rat crude synaptic vesicles')
Die Präparation von Vesikeln wurde aus Rattengehirn-homogenaten (männlichen Ratten, Stamm Wistar SPF, 150-250 g Gewicht) durchgeführt gemäß Roseth et al. (1995) J. Neurochem. 65: 96-103, der sich auf Whittaker et al. (1964) Biochem J. 90, 293-303 und Fykse und Fonnum (1988) J. Neurochem. 50: 1237-1242 bezieht.
Hierzu wurden frisch entnommene Rattengehirne in 0,32 M Saccharose, 10 mM TRIS-maleat, 1 mM EGTA, pH 7,4 (10 ml/g Frischgewicht) mit einem Potter-Homogenisator (Fa. Braun/Melsungen; 5 Kolbenhübe bei 800 Upm) unter Eiskühlung homogenisiert und anschließend für 10 Minuten bei 3.000 g und 4°C zentrifugiert. Der resultierende Überstand wurde bei 20.000 g für 30 Minuten bei 4°C zentrifugiert. Das entstandene Pellet wurde dann im Verhältnis 1:3 mit 10 mM TRIS-maleate, 0,1 mM EGTA, pH 7,4 osmotisch geschockt und die Suspension bei 17000g für 30 min (4°C) zentrifugiert. Die im Überstand verbliebenen Vesikel wurden nun auf einen Dichtegradienten aus 0,6 M Saccharose in 10 mM TRIS-maleat, 1 mM EGTA, pH 7.4 und 0.4 M Saccharose in 10 mM TRIS-maleat, 1 mM EGTA, pH 7.4 geschichtet. Eine Ultrazentrifugation der Gradienten im Ausschwingrotor bei 65000g für 2h (4°C) schloss sich an. Die Vesikel-Fraktion wurde von der 0.4 M Saccharose-Bande isoliert und im Uptake-Versuch eingesetzt.
Die Substratlösung für den Uptake von [^3H]-Glutamat bestand aus ATP (neutralisiert mit Trisma base; 2 mM im Endansatz), Glutamat (0.5 mM im Endansatz) und ^3H-Glutamat (0.5 µCi im Endansatz). In 14 ml-Reagiergefäßen (Sarstedt, Artikel-Nr.: 798438) wurden jeweils 0,3 ml Gesamtvolumina (n=2/Probe) pipettiert in der folgenden Reihenfolge: 1.) 165 µl Inkubationspuffer (110 mM Kaliumtartrat, 10 mM TRIS-maleat, pH 7,4, 4 mM MgCl2), 2.) 10 µl Testsubstanz oder Vehikelkontrolle oder blank, 3.) 100 µl synaptische Vesikel. Es schloss sich eine Vorinkubation von 15 min bei 30°C an (nur blank-Ansätze befanden sich hierbei auf Eis). Danach wurde der Uptake durch Zugabe von 25 µl der oben beschriebenen Substratlösung gestartet. Die Reaktion wurde nach 5 min durch Zugabe von 7,0 ml eiskalter 150 mM KCI gestoppt. Anschließend wurden die Proben mit Hilfe des Brandel Cell Harvesters Typ M-24R über einen Membranfilter der Porengröße 0,8 µm abgesaugt und zweimal mit eiskalter 150 mM KCI nachgewaschen. Die Messung erfolgte am beta-Counter nach 15 h in 10 ml Szintillatorflüssigkeit (Filter Count).
Die Affinität der Verbindungen der allgemeinen Formel (I) für den vGLUT1- bzw. vGLUT2-Transporter wurde wie vorstehend beschrieben bestimmt (Pharmakologische Methoden)

[1] abbreviates: compound freshly dissolved from the solid substance, read-out: VGLUT (Ratte), ICso-Fest.

Where two headings read alike, the source gives them in different places.

As for `O=C(Nc1ccccc1C(=O)O)c1cccc(N2C(=O)c3ccc(C(=O)Nc4ccccc4C(=O)O)cc3C2=O)c1` [Beispiel 3, 2-(3-(5-(2-Carboxyphenylcarbamoyl)-1,3-dioxoisoindolin-2-yl)benzamido)-benzoesäure], the “VGLUT (Ratte), Hemmung [%]” value is 97%. In addition, the IC50 (read-out: VGLUT (Ratte), IC50) was found to be 560 nM.
As to `O=C(Nc1ccc(O)cc1C(=O)O)c1ccc(N2C(=O)c3ccc(C(=O)Nc4ccc(O)cc4C(=O)O)cc3C2=O)cc1` [Beispiel 4, 2-(4-(5-(2-Carboxylato-4-hydroxyphenylcarbamoyl)-1,3-dioxoisoindolin-2-yl)-benzamido)-5-hydroxybenzoesäure, Natriumsalz], the IC50 under setting [1] worked out at 154 nM.
As for `O=C(O)c1ccccc1N1C(=O)c2ccc(Oc3ccc(Oc4ccc5c(c4)C(=O)N(c4ccccc4C(=O)O)C5=O)cc3)cc2C1=O` [Beispiel 1, 2,2'-(5,5'-(1,4-Phenylenbis(oxy))bis(1,3-dioxoisoindolin-5,2-diyl))dibenzoesäure], the “VGLUT (Ratte), Hemmung [%]” value is on record as 74%. Also, the IC50 (read-out: VGLUT (Ratte), IC50) came to 3810 nM.
With `O=C(Nc1ccc(O)cc1C(=O)O)c1ccc(N2C(=O)c3ccc(C(=O)Nc4ccc(O)cc4C(=O)O)cc3C2=O)cc1` [Beispiel 2, 2-(4-(5-(2-Carboxy-4-hydroxyphenylcarbamoyl)-1,3-dioxoisoindolin-2-yl)benzamido)-5-hydroxybenzoesäure], the “VGLUT (Ratte), Hemmung [%]” value is given as 98%. Under setting [1], the IC50 was found to be 32 nM. Further, under “read-out: VGLUT (Ratte), IC50”, the IC50 is 94.6 nM.

Source of the values: EP2338485A1, “Substituted 1,3-dioxoisoindolines as medicine” (Grünenthal GmbH, priority 2009, dated 2011).
